# Source: paper PMC5218480 (PLoS ONE, 2017)
# Test system: MV-4-11 cells
# Test: Gene expression microarray analysis (Affymetrix PrimeView) and GSEA
# Assay type: cell-based, human
# Parameters: RFU PODN (11730768_x_at) / Fold change /veh PODN (11730768_x_at) / RFU LINC00158 (11744669_a_at) / Fold change /veh LINC00158 (11744669_a_at) / RFU DUSP10 (11751237_a_at) / Fold change /veh DUSP10 (11751237_a_at) / RFU ID3 (11757404_x_at) / Fold change /veh ID3 (11757404_x_at) / RFU PLEKHG5 (11737974_s_at) / Fold change /veh PLEKHG5 (11737974_s_at) / RFU LRRC4B (11730491_at) / Fold change /veh LRRC4B (11730491_at) / RFU GIMAP4 (11747438_a_at) / Fold change /veh GIMAP4 (11747438_a_at) / RFU KRT8 (11758183_x_at) / Fold change /veh KRT8 (11758183_x_at) / RFU CNN1 (11734310_a_at) / Fold change /veh CNN1 (11734310_a_at) / RFU VPS37D (11726825_at) / Fold change /veh VPS37D (11726825_at) / RFU C10orf10 (11716522_x_at) / Fold change /veh C10orf10 (11716522_x_at) / RFU KIR2DL2 /// KIR2DL4 /// KIR2DL5A /// KIR2DL5B /// KIR2DS1 /// KIR2DS2 /// KIR2DS3 /// KIR2DS4 /// KIR3DL3 /// KIR3DL3 /// KIR3DS1 (11738374_at) / Fold change /veh KIR2DL2 /// KIR2DL4 /// KIR2DL5A /// KIR2DL5B /// KIR2DS1 /// KIR2DS2 /// KIR2DS3 /// KIR2DS4 /// KIR3DL3 /// KIR3DL3 /// KIR3DS1 (11738374_at) / RFU C1QL1 (11718748_at) / Fold change /veh C1QL1 (11718748_at) / RFU TMPRSS4 (11747572_a_at) / Fold change /veh TMPRSS4 (11747572_a_at) / RFU HAMP (11756126_x_at) / Fold change /veh HAMP (11756126_x_at) / RFU RNFT2 (11725882_a_at) / Fold change /veh RNFT2 (11725882_a_at) / RFU NR4A2 (11747474_a_at) / Fold change /veh NR4A2 (11747474_a_at) / RFU ABCC12 (11746883_a_at) / Fold change /veh ABCC12 (11746883_a_at) / RFU TMEM136 (11760407_x_at) / Fold change /veh TMEM136 (11760407_x_at) / RFU CLDN22 /// WWC2 (11732394_at) / Fold change /veh CLDN22 /// WWC2 (11732394_at) / RFU HLA-DPB1 (11760878_x_at) / Fold change /veh HLA-DPB1 (11760878_x_at) / RFU SPINT1 (11716480_a_at) / Fold change /veh SPINT1 (11716480_a_at) / RFU GAP43 (11754022_s_at) / Fold change /veh GAP43 (11754022_s_at) / RFU A4GNT (11735810_at) / Fold change /veh A4GNT (11735810_at) / RFU PRB3 (11715151_x_at) / Fold change /veh PRB3 (11715151_x_at) / RFU TUBB4B (11761932_at) / Fold change /veh TUBB4B (11761932_at) / RFU CAPN14 (11732068_a_at) / Fold change /veh CAPN14 (11732068_a_at) / RFU TMCC2 (11721928_a_at) / Fold change /veh TMCC2 (11721928_a_at) / RFU IRGQ (11745062_a_at) / Fold change /veh IRGQ (11745062_a_at) / RFU FAM174B (11720279_a_at) / Fold change /veh FAM174B (11720279_a_at) / RFU TMPRSS4 (11748680_a_at) / Fold change /veh TMPRSS4 (11748680_a_at) / RFU FAM212B (11763350_a_at) / Fold change /veh FAM212B (11763350_a_at) / RFU PLEKHG5 (11743358_a_at) / Fold change /veh PLEKHG5 (11743358_a_at) / RFU ZSCAN30 (11745921_a_at) / Fold change /veh ZSCAN30 (11745921_a_at) / RFU CMKLR1 (11741424_a_at) / Fold change /veh CMKLR1 (11741424_a_at) / RFU LOC101060620 /// MAPK8IP1 (11723275_at) / Fold change /veh LOC101060620 /// MAPK8IP1 (11723275_at) / RFU SPTSSB (11747773_x_at) / Fold change /veh SPTSSB (11747773_x_at) / RFU PRSS12 (11739890_at) / Fold change /veh PRSS12 (11739890_at) / RFU BIN1 (11741810_x_at) / Fold change /veh BIN1 (11741810_x_at) / RFU WNT11 (11732464_a_at) / Fold change /veh WNT11 (11732464_a_at) / RFU C10orf10 (11716521_a_at) / Fold change /veh C10orf10 (11716521_a_at) / RFU C5orf56 (11738089_at) / Fold change /veh C5orf56 (11738089_at) / RFU CYB561 (11721691_x_at) / Fold change /veh CYB561 (11721691_x_at) / RFU ANKRD19P (11752326_a_at) / Fold change /veh ANKRD19P (11752326_a_at) / RFU OR2T12 /// OR2T33 /// OR2T8 (11738714_s_at) / Fold change /veh OR2T12 /// OR2T33 /// OR2T8 (11738714_s_at) / RFU VCAN (11748164_a_at) / Fold change /veh VCAN (11748164_a_at) / RFU JSRP1 (11732532_at) / Fold change /veh JSRP1 (11732532_at) / RFU KRTAP10-11 (11738290_x_at) / Fold change /veh KRTAP10-11 (11738290_x_at) / RFU MYO3A (11730013_a_at) / Fold change /veh MYO3A (11730013_a_at) / RFU EBF3 (11725865_a_at) / Fold change /veh EBF3 (11725865_a_at) / RFU CAMK2N1 (11719241_x_at) / Fold change /veh CAMK2N1 (11719241_x_at) / RFU C5orf56 (11738088_a_at) / Fold change /veh C5orf56 (11738088_a_at) / RFU OLFML3 (11715873_a_at) / Fold change /veh OLFML3 (11715873_a_at) / RFU LOC100653217 /// NTM (11731650_a_at) / Fold change /veh LOC100653217 /// NTM (11731650_a_at) / RFU MAPK11 (11762145_a_at) / Fold change /veh MAPK11 (11762145_a_at) / RFU FIZ1 (11724087_x_at) / Fold change /veh FIZ1 (11724087_x_at) / RFU OASL (11726364_x_at) / Fold change /veh OASL (11726364_x_at) / RFU SOX15 (11748057_x_at) / Fold change /veh SOX15 (11748057_x_at) / RFU CD79A (11719716_a_at) / Fold change /veh CD79A (11719716_a_at) / RFU HIST1H1D (11736915_at) / Fold change /veh HIST1H1D (11736915_at) / RFU CASKIN2 (11723855_a_at) / Fold change /veh CASKIN2 (11723855_a_at) / RFU LOC730098 (11760151_x_at) / Fold change /veh LOC730098 (11760151_x_at) / RFU OR4N2 (11742367_at) / Fold change /veh OR4N2 (11742367_at) / RFU PRRT2 (11749266_a_at) / Fold change /veh PRRT2 (11749266_a_at) / RFU SNX32 (11753110_a_at) / Fold change /veh SNX32 (11753110_a_at) / RFU CDHR5 (11726645_a_at) / Fold change /veh CDHR5 (11726645_a_at) / RFU RCAN1 (11760418_a_at) / Fold change /veh RCAN1 (11760418_a_at) / RFU FAM167A (11723789_a_at) / Fold change /veh FAM167A (11723789_a_at) / RFU FAM26E (11764081_at) / Fold change /veh FAM26E (11764081_at) / RFU ISYNA1 (11749810_s_at) / Fold change /veh ISYNA1 (11749810_s_at) / RFU ACY1 (11761880_at) / Fold change /veh ACY1 (11761880_at) / RFU 11764098_at / Fold change /veh 11764098_at / RFU SAMD14 (11745864_x_at) / Fold change /veh SAMD14 (11745864_x_at) / RFU NPB (11741838_a_at) / Fold change /veh NPB (11741838_a_at) / RFU TMPRSS6 (11731388_a_at) / Fold change /veh TMPRSS6 (11731388_a_at) / RFU KRTAP10-2 (11738614_at) / Fold change /veh KRTAP10-2 (11738614_at) / RFU ARHGAP8 /// PRR5-ARHGAP8 (11727945_x_at) / Fold change /veh ARHGAP8 /// PRR5-ARHGAP8 (11727945_x_at) / RFU KRTAP5-7 /// NADSYN1 (11734609_at) / Fold change /veh KRTAP5-7 /// NADSYN1 (11734609_at) / RFU RASL12 (11751679_a_at) / Fold change /veh RASL12 (11751679_a_at) / RFU CDKN2B (11736163_a_at) / Fold change /veh CDKN2B (11736163_a_at) / RFU PRF1 (11729649_at) / Fold change /veh PRF1 (11729649_at) / RFU, ZNF638 /// ZNF638-IT1 / Fold change vs veh, ZNF638 /// ZNF638-IT1 / RFU, PANK3 / Fold change vs veh, PANK3 / RFU, SH3YL1 / Fold change vs veh, SH3YL1 / RFU, ZEB2 / Fold change vs veh, ZEB2 / RFU, NRIP1 / Fold change vs veh, NRIP1 / RFU, PTTG1IP / Fold change vs veh, PTTG1IP / RFU, CAPN2 / Fold change vs veh, CAPN2 / RFU, MED14 / Fold change vs veh, MED14 / RFU, SNORA58 / Fold change vs veh, SNORA58 / RFU, C1orf63 / Fold change vs veh, C1orf63 / RFU, LRRFIP1 / Fold change vs veh, LRRFIP1 / RFU, NDUFAF7 / Fold change vs veh, NDUFAF7 / RFU, SLC12A2 / Fold change vs veh, SLC12A2 / RFU, IBTK / Fold change vs veh, IBTK / RFU, ESF1 / Fold change vs veh, ESF1 / Fold change vs veh, TMEM50B / RFU, TAOK1 / Fold change vs veh, TAOK1 / RFU, ACBD3 / Fold change vs veh, ACBD3 / RFU, TMA16 / Fold change vs veh, TMA16 / RFU, RWDD3 / Fold change vs veh, RWDD3 / RFU, BCAT1 / Fold change vs veh, BCAT1 / RFU, EDEM3 / Fold change vs veh, EDEM3 / RFU, TMEM33 / Fold change vs veh, TMEM33 / RFU, WDR75 / Fold change vs veh, WDR75 / RFU, AHCTF1 / Fold change vs veh, AHCTF1 / RFU, TFRC / Fold change vs veh, TFRC / RFU, ZDHHC17 / Fold change vs veh, ZDHHC17 / RFU, NOM1 / Fold change vs veh, NOM1 / RFU, ARL8B / Fold change vs veh, ARL8B / RFU, ZBTB11 / Fold change vs veh, ZBTB11 / RFU, TAMM41 / Fold change vs veh, TAMM41 / RFU, KIAA1704 /// LOC100996395 / Fold change vs veh, KIAA1704 /// LOC100996395 / RFU, ING1 / Fold change vs veh, ING1 / RFU, TRMT61B / Fold change vs veh, TRMT61B / RFU, FUBP3 / Fold change vs veh, FUBP3 / RFU, TP53 / Fold change vs veh, TP53 / RFU, TNKS2 / Fold change vs veh, TNKS2 / RFU, ZFP14 / Fold change vs veh, ZFP14 / RFU, ACTR2 / Fold change vs veh, ACTR2 / RFU, PPP3R1 / Fold change vs veh, PPP3R1 / RFU, PIK3R1 / Fold change vs veh, PIK3R1 / RFU, HNRNPA1 / Fold change vs veh, HNRNPA1 / RFU, RNF170 / Fold change vs veh, RNF170 / RFU, ZNF28 / Fold change vs veh, ZNF28 / RFU, RNGTT / Fold change vs veh, RNGTT / RFU, OGT / Fold change vs veh, OGT / RFU, BRD1 / Fold change vs veh, BRD1 / RFU, MARS / Fold change vs veh, MARS / RFU, ZNF655 / Fold change vs veh, ZNF655 / RFU, FAHD1 / Fold change vs veh, FAHD1 / RFU, BDP1 / Fold change vs veh, BDP1 / RFU, LRRCC1 / Fold change vs veh, LRRCC1 / RFU, ARID1A / Fold change vs veh, ARID1A / RFU, ZNF146 / Fold change vs veh, ZNF146 / RFU, ZNF330 / Fold change vs veh, ZNF330 / RFU, GPN3 / Fold change vs veh, GPN3 / RFU, C9orf123 / Fold change vs veh, C9orf123 / RFU, N4BP2L2 / Fold change vs veh, N4BP2L2 / RFU, ARFIP1 / Fold change vs veh, ARFIP1 / RFU, FAM179B / Fold change vs veh, FAM179B / RFU, BCL10 / Fold change vs veh, BCL10 / RFU, UHRF1BP1L / Fold change vs veh, UHRF1BP1L / RFU, BET1 / Fold change vs veh, BET1 / RFU, CNOT2 / Fold change vs veh, CNOT2 / RFU, ZNF268 / Fold change vs veh, ZNF268 / Fold change vs veh, ZNF507 / RFU, DGCR2 / Fold change vs veh, DGCR2 / RFU, WDSUB1 / Fold change vs veh, WDSUB1 / Fold change vs veh, HSP90B1 /// MIR3652 / RFU, ADSS / Fold change vs veh, ADSS / RFU, GK / Fold change vs veh, GK / RFU, ZNF148 / Fold change vs veh, ZNF148 / RFU, TAF9 / Fold change vs veh, TAF9 / RFU, SLC1A5 / Fold change vs veh, SLC1A5 / RFU, SLMO2 / Fold change vs veh, SLMO2 / RFU, ABCC4 / Fold change vs veh, ABCC4 / RFU, LOC101060439 /// RAP1B / Fold change vs veh, LOC101060439 /// RAP1B / RFU, RFX7 / Fold change vs veh, RFX7 / RFU, GTPBP10 / Fold change vs veh, GTPBP10 / RFU, CNEP1R1 / Fold change vs veh, CNEP1R1 / RFU, BIVM-ERCC5 /// ERCC5 / Fold change vs veh, BIVM-ERCC5 /// ERCC5 / RFU, ILF3 / Fold change vs veh, ILF3 / RFU 11762660_at / Fold change /veh 11762660_at / RFU VCAN (11757783_s_at) / Fold change /veh VCAN (11757783_s_at) / RFU DDX43 (11728927_at) / Fold change /veh DDX43 (11728927_at) / RFU KRT8 (11758188_x_at) / Fold change /veh KRT8 (11758188_x_at) / RFU NKD1 (11759106_at) / Fold change /veh NKD1 (11759106_at) / RFU SRD5A1 (11742802_a_at) / Fold change /veh SRD5A1 (11742802_a_at) / RFU TPSAB1 /// TPSB2 (11721975_s_at) / Fold change /veh TPSAB1 /// TPSB2 (11721975_s_at) / RFU GSTM3 (11746129_a_at) / Fold change /veh GSTM3 (11746129_a_at) / RFU IL23R (11737362_x_at) / Fold change /veh IL23R (11737362_x_at) / RFU TMEM51 (11727254_a_at) / Fold change /veh TMEM51 (11727254_a_at) / RFU PIWIL2 (11732686_x_at) / Fold change /veh PIWIL2 (11732686_x_at) / RFU ORM1 (11744905_x_at) / Fold change /veh ORM1 (11744905_x_at) / RFU CCDC152 (11743942_at) / Fold change /veh CCDC152 (11743942_at) / RFU ECM1 (11717891_a_at) / Fold change /veh ECM1 (11717891_a_at) / RFU IL23R (11748794_a_at) / Fold change /veh IL23R (11748794_a_at) / RFU TNFAIP8L3 (11732012_x_at) / Fold change /veh TNFAIP8L3 (11732012_x_at) / RFU MBOAT4 (11741988_at) / Fold change /veh MBOAT4 (11741988_at) / RFU 11764193_at / Fold change /veh 11764193_at / RFU TMEM53 (11763286_at) / Fold change /veh TMEM53 (11763286_at) / RFU MAGEB2 (11727129_at) / Fold change /veh MAGEB2 (11727129_at) / RFU TMEM200A (11744735_a_at) / Fold change /veh TMEM200A (11744735_a_at) / RFU CCDC152 (11751479_a_at) / Fold change /veh CCDC152 (11751479_a_at) / RFU FAM211A (11726209_a_at) / Fold change /veh FAM211A (11726209_a_at) / RFU RGS16 (11746705_a_at) / Fold change /veh RGS16 (11746705_a_at) / RFU VCAN (11755009_s_at) / Fold change /veh VCAN (11755009_s_at) / RFU RHOB (11743442_s_at) / Fold change /veh RHOB (11743442_s_at) / RFU RGS16 (11720943_a_at) / Fold change /veh RGS16 (11720943_a_at) / RFU RGS16 (11720944_at) / Fold change /veh RGS16 (11720944_at) / RFU, VPS4B / Fold change vs veh, VPS4B / RFU, CREB1 / Fold change vs veh, CREB1 / RFU, DNAJC13 / Fold change vs veh, DNAJC13 / RFU, GNAQ / Fold change vs veh, GNAQ / RFU, CDK5R1 / Fold change vs veh, CDK5R1 / RFU, ZRANB3 / Fold change vs veh, ZRANB3 / RFU, CUL4A / Fold change vs veh, CUL4A / RFU, CCNY / Fold change vs veh, CCNY / RFU, UFL1 / Fold change vs veh, UFL1 / RFU, COG3 / Fold change vs veh, COG3 / RFU, DIAPH2 / Fold change vs veh, DIAPH2 / RFU, SKA2 / Fold change vs veh, SKA2 / RFU, AFF3 / Fold change vs veh, AFF3 / RFU, LMF1 / Fold change vs veh, LMF1 / RFU, IPO11 / Fold change vs veh, IPO11 / RFU, DFFB / Fold change vs veh, DFFB / RFU, FOXP1 / Fold change vs veh, FOXP1 / RFU, CARD8 / Fold change vs veh, CARD8 / RFU, STRN3 / Fold change vs veh, STRN3 / RFU, ADK / Fold change vs veh, ADK / RFU, RASSF2 / Fold change vs veh, RASSF2 / RFU, WIPF1 / Fold change vs veh, WIPF1 / RFU, LARP1B / Fold change vs veh, LARP1B / RFU, RASA1 / Fold change vs veh, RASA1 / RFU, RB1 / Fold change vs veh, RB1 / RFU, PPFIA1 / Fold change vs veh, PPFIA1 / RFU, MAT2A / Fold change vs veh, MAT2A / RFU, CCT5 / Fold change vs veh, CCT5 / RFU, WDR92 / Fold change vs veh, WDR92 / RFU, CUX1 / Fold change vs veh, CUX1 / RFU, TTC7A / Fold change vs veh, TTC7A / RFU, TMEM135 / Fold change vs veh, TMEM135 / RFU, DEPTOR / Fold change vs veh, DEPTOR / RFU, CPM / Fold change vs veh, CPM / RFU, DNAJB6 / Fold change vs veh, DNAJB6 / RFU, CACNA2D3 / Fold change vs veh, CACNA2D3 / RFU, DTX4 / Fold change vs veh, DTX4 / RFU, TFCP2 / Fold change vs veh, TFCP2 / RFU, GMCL1 /// GMCL1P1 / Fold change vs veh, GMCL1 /// GMCL1P1 / RFU, AEBP2 / Fold change vs veh, AEBP2 / RFU, SNHG1 /// SNORD22 /// SNORD25 /// SNORD26 /// SNORD27 /// SNORD28 /// SNORD29 /// SNORD31 / Fold change vs veh, SNHG1 /// SNORD22 /// SNORD25 /// SNORD26 /// SNORD27 /// SNORD28 /// SNORD29 /// SNORD31 / Fold change (Aza/veh), C12orf56 (ProbeSet 11735607_a_at) / Fold change (ACY-1035/veh), C12orf56 (ProbeSet 11735607_a_at) / Fold change (Aza/veh), FGFR1OP (ProbeSet 11751329_s_at) / Fold change (ACY-1035/veh), FGFR1OP (ProbeSet 11751329_s_at) / Fold change (Aza/veh), VPS36 (ProbeSet 11739960_a_at) / Fold change (ACY-1035/veh), VPS36 (ProbeSet 11739960_a_at) / RFU SYPL1 (11715823_x_at) / Fold change /veh SYPL1 (11715823_x_at) / RFU IGFBP7 (11715501_s_at) / Fold change /veh IGFBP7 (11715501_s_at) / RFU REEP3 (11722064_at) / Fold change /veh REEP3 (11722064_at) / RFU IGLL1 (11728026_x_at) / Fold change /veh IGLL1 (11728026_x_at): dose or concentration left out as unconfirmed
# Conditions: ProbeSet 11749477_a_at; LIST B
smiles,measurement,value
Nc1ncn([C@@H]2O[C@H](CO)[C@@H](O)[C@H]2O)c(=O)n1 [azacitidine],"RFU, EDEM3",49.32 RFU
